Source: patent US20140303092A1 (CHIMERIX, INC., priority 2011, published 2014)

Assay: Study HDP-CDV-201: safety and tolerability (adverse events, laboratory abnormalities, discontinuations)
Type: in vivo, human (adult allogeneic HSCT recipients)
Settings: for Subjects with Hemoglobin <6.5 g/dL / Subjects with Hemoglobin <8-6.5 g/dL / Subjects with Hemoglobin <10-8 g/dL / Subjects with Hemoglobin <LLN-10 g/dL / Subjects with Neutrophils <0.5 GI/L / Subjects with Neutrophils <1.0-0.5 GI/L / Subjects with Neutrophils <1.5-1 GI/L / Subjects with Neutrophils <LLN-1.5 GI/L / Subjects with Platelets <25 GI/L / Subjects with Platelets <50-25 GI/L / Subjects with Platelets <75-50 GI/L / Subjects with Platelets <LLN-75 GI/L / Subjects with Serum Creatinine >1 × ULN-[…] ULN / Subjects with Serum Creatinine >3 × ULN-6 × ULN / Subjects with Serum Creatinine >6 × ULN / Subjects with Serum Creatinine >[…] ULN-3 × ULN / Subjects with WBC <1 GI/L / Subjects with WBC <2-1 GI/L / Subjects with WBC <3-2 GI/L / Subjects with WBC <LLN-3 GI/L: any time during therapy
Procedure: Clinical Studies of HDP-CDV were performed and described in detail in the following Examples. For example, HDP-CDV-201 is a placebo-controlled, dose-escalating trial in HSCT CMV (R+) recipients, evaluating the ability of HDP-CDV to prevent or control CMV infection was carried out. Five cohorts were established in which participants or subjects received either placebo or the HDP-CDV orally, in doses ranging from 40 mg weekly (QW) to 200 mg twice weekly (BIW). Subjects who were post-HSCT were enrolled at the time of engraftment and randomized to HDP-CDV or placebo (3 to 1 ratio) and received blinded therapy until approximately 100 day post-transplantation. HDP-CDV doses were 40 mg QW, 100 mg QW, 200 mg QW, 200 mg BIW and 100 mg BIW. Escalation to the next dose was decided by the data monitoring committee after review of the safety data from the previous Cohort. Subjects who developed CMV disease or CMV infection requiring pre-emptive therapy with local standard of care were discontinued from blinded therapy and followed for 4 weeks. Subjects who completed treatment with blinded therapy were followed for 8 weeks post-therapy.
Data from Study HDP-CDV-201 also provided characterization of the safety and tolerability profile of HDP-CDV when administered for the prevention or control of CMV infection in high risk (R^+) post-HSCT adult subjects.
The Safety population (SAFETY) included all randomized subjects who took at least one dose of study treatment. This population was used to summarize safety outcomes based on the treatment actually received, in cases where a subject was treated contrary to the randomization schedule.
The safety and tolerability profile of HDP-CDV, including subject demographics and Baseline characteristics; the AE profile; and laboratory abnormalities of interest were analyzed in the cohorts followed in this investigation.
Subjects completing the treatment period received a full course of study medication; those completing the entire study attended visits through 8 weeks of follow up. Subjects who discontinued treatment may have done so for protocol specified reasons (e.g. development of clinically significant CMV infection requiring preemptive treatment with excluded anti-CMV medications) or for other reasons (e.g., withdrawal, adverse events, loss to follow-up). The disposition of subjects in Study HDP-CDV-201 during the double-blind, placebo-controlled treatment period (through Week 11) is listed by dosing Cohort in TABLE 23.
Adverse events were examined by severity to ensure that all safety signals were identified in this study population. Because of the frequency of events in HSCT recipients, particular attention was given to evaluation of Grade 3 […], 4 (severe), and 5 (fatal) adverse events.
Only those preferred terms for which at least one Grade 3 or higher event was experienced in any treatment group are listed. Cytomegalovirus-related AEs are excluded from this analysis.
HDP-CDV is a lipid conjugate of CDV. Because CDV is known to have adverse effects on renal function and bone marrow, decreased GFR and persistent neutropenia were identified as AEs of special interest. Key renal and hematological (TABLE 30) laboratory parameters were measured and listed below by Study HDP-CDV-201 treatment groups. TABLE 30 includes abnormal levels of serum creatinine, neutrophils, platelets, WBCs, and hemoglobin and includes data at Screening and during the treatment period.
A common metric for unit based dosing of medications is by weight (mg/kg). When the distribution of weights was examined for all subjects participating in the study, the median was 78 kg and the lower 25th percentile weight was approximately 65 kg, which translates to a cut-off of ˜3 mg/kg for a 200 mg total weekly dose. Based upon this approach, a cut-off of 3 mg/kg was used to assess the frequency of diarrhea and associated GI AEs reported for the subjects in Cohorts 3 or 4a (TABLE 40).

Compound: CCCCCCCCCCCCCCCCOCCCOP(=O)(O)COC(CO)Cn1ccc(N)nc1=O (centres unmarked) [HDP-CDV]
- Outcome of hepatobiliary AE hyperbilirubinemia, subject 4080 (Cohort 4a): not recovered/not
- Outcome of hepatobiliary AE hyperbilirubinemia, subject 4090 (Cohort 4a): recovered/resolved
- Outcome of hepatobiliary AE worsening hyperbilirubinemia, subject 4109 (Cohort 4a): not recovered/not
- Relationship of hepatobiliary AE cholecystitis, subject 4058 (Cohort 4a): not related
- Relationship of hepatobiliary AE hyperbilirubinemia, subject 4080 (Cohort 4a): not related
- Relationship of hepatobiliary AE hyperbilirubinemia, subject 4090 (Cohort 4a): possibly related
- Relationship of hepatobiliary AE worsening hyperbilirubinemia, subject 4109 (Cohort 4a): not related
- frequency of SAEs involving the gastrointestinal tract (Cohort 4a (100 mg BIW)): 42%
- typical ALT increases relative to Baseline (Weeks 2 to 4 of dosing, doses of 200 mg per week or higher): 2-4 times Baseline
- subjects who discontinued study drug because of GI AEs (after introduction of the safety monitoring and management plan): ≤ 10%
- Grade 3 or 4 increases in creatinine (any dose): no Grade 3 or 4 increases in creatinine
- subjects who discontinued study drug due to GI AEs (any dose other than 200 mg BIW): less than 10%
- Subjects with Hemoglobin <6.5 g/dL (40 mg QW): 0
- Subjects with Hemoglobin <8-6.5 g/dL (40 mg QW): 1 (4.3%)
- Subjects with Hemoglobin <10-8 g/dL (40 mg QW): 11 (47.8%)
- Subjects with Hemoglobin <LLN-10 g/dL (40 mg QW): 10 (43.5%)
- Subjects with Neutrophils <0.5 GI/L (40 mg QW): 0
- Subjects with Neutrophils <1.0-0.5 GI/L (40 mg QW): 2 (8.7%)
- Subjects with Neutrophils <1.5-1 GI/L (40 mg QW): 5 (21.7%)
- Subjects with Neutrophils <LLN-1.5 GI/L (40 mg QW): 4 (17.4%)
- Subjects with Platelets <25 GI/L (40 mg QW): 4 (17.4%)
- Subjects with Platelets <50-25 GI/L (40 mg QW): 9 (39.1%)
- Subjects with Platelets <75-50 GI/L (40 mg QW): 4 (17.4%)
- Subjects with Platelets <LLN-75 GI/L (40 mg QW): 6 (26.1%)
- Subjects with Serum Creatinine >1 × ULN-[…] ULN (40 mg QW): 8 (34.8%)
- Subjects with Serum Creatinine >3 × ULN-6 × ULN (40 mg QW): 0
- Subjects with Serum Creatinine >6 × ULN (40 mg QW): 0
- Subjects with Serum Creatinine >[…] ULN-3 × ULN (40 mg QW): 2 (8.7%)
- Subjects with WBC <1 GI/L (40 mg QW): 0
- Subjects with WBC <2-1 GI/L (40 mg QW): 5 (21.7%)
- Subjects with WBC <3-2 GI/L (40 mg QW): 6 (26.1%)
- Subjects with WBC <LLN-3 GI/L (40 mg QW): 5 (21.7%)
- Subjects with Hemoglobin <6.5 g/dL (100 mg BIW): 1 (2.0%)
- Subjects with Hemoglobin <8-6.5 g/dL (100 mg BIW): 4 (8.0%)
- Subjects with Hemoglobin <10-8 g/dL (100 mg BIW): 27 (54.0%)
- Subjects with Hemoglobin <LLN-10 g/dL (100 mg BIW): 17 (34.0%)
- Subjects with Neutrophils <0.5 GI/L (100 mg BIW): 3 (6.0%)
- Subjects with Neutrophils <1.0-0.5 GI/L (100 mg BIW): 10 (20.0%)
- Subjects with Neutrophils <1.5-1 GI/L (100 mg BIW): 10 (20.0%)
- Subjects with Neutrophils <LLN-1.5 GI/L (100 mg BIW): 5 (10.0%)
- Subjects with Platelets <25 GI/L (100 mg BIW): 6 (12.0%)
- Subjects with Platelets <50-25 GI/L (100 mg BIW): 7 (14.0%)
- Subjects with Platelets <75-50 GI/L (100 mg BIW): 10 (20.0%)
- Subjects with Platelets <LLN-75 GI/L (100 mg BIW): 21 (42.0%)
- Subjects with Serum Creatinine >1 × ULN-[…] ULN (100 mg BIW): 16 (32.0%)
- Subjects with Serum Creatinine >3 × ULN-6 × ULN (100 mg BIW): 0
- Subjects with Serum Creatinine >6 × ULN (100 mg BIW): 0
- Subjects with Serum Creatinine >[…] ULN-3 × ULN (100 mg BIW): 10 (20.0%)
- Subjects with WBC <1 GI/L (100 mg BIW): 4 (8.0%)
- Subjects with WBC <2-1 GI/L (100 mg BIW): 8 (16.0%)
- Subjects with WBC <3-2 GI/L (100 mg BIW): 12 (24.0%)
- Subjects with WBC <LLN-3 GI/L (100 mg BIW): 11 (22.0%)
- Subjects with Hemoglobin <6.5 g/dL (100 mg QW): 1 (3.7%)
- Subjects with Hemoglobin <8-6.5 g/dL (100 mg QW): 1 (3.7%)
- Subjects with Hemoglobin <10-8 g/dL (100 mg QW): 12 (44.4%)
- Subjects with Hemoglobin <LLN-10 g/dL (100 mg QW): 12 (44.4%)
